The source of these data is patent US20250255850A1, “PHARMACEUTICAL COMPOSITIONS FOR TREATING NEUROLOGICAL CONDITIONS” (YISSUM RESEARCH DEVELOPMENT COMPANY OF THE HEBREW …, priority 2021, published 2025).

One series has as its system SH-SY5Y cells. Description: Clonogenic survival assay. Particulars: 7-NI 100 μM for 24 hours or siRNA-nNOS, 14 days. It is filed as cell-based, human. The method, then:
Cells were seeded into 6-well plates at concentrations of 500/well or 1000/well in triplicates. After 24 hours, 7-NI was added (100 μM for 24 hours), or cells were transiently transfected with siRNA-nNOS, as described above, before changing to serum-containing medium. Cells were incubated for 14 days to form visible colonies. Colonies were stained with crystal violet, washed with PBS, air-dried, and imaged. The colonies were visualized using ImageJ software. Cell colonies of greater than 50 cells were identified and counted (Lopez-Rivera et al., 2014).

The test system of the next series is SHANK3 knockout mice. The series can be described thus: Novel object recognition test, SHANK3 knockout mice (M1). To be noted: 7-NI IP 80 mg/kg/day for 10 days. It is filed as in vivo, mouse. As to the method: (§1) Behavioral testing started after 2 hours of treatment.
(§2) Novel object recognition (see, FIG. 4A): The novel object test for object recognition and memory takes place in a white open field arena (45×45 cm). The test involves a set of two unique novel objects, each about the size of a mouse, constructed from two different materials and non-uniform in shape. The test consisted of one 10-minute habituation session, a 5-minute familiarization session and a 5-minute recognition test, each video tracked (Noldus Ethovision). During the habituation, animals were allowed to freely explore an empty open field. At the end of the session, they were shifted from the open field to a place in a temporary clean holding cage for about 2 minutes. Two identical objects were placed on the median line at 10 cm from each wall and the animal was returned to the open field and allowed to explore the objects for 5 minutes before being returned to its home cage. Next day, one familiar object and one novel object were placed in the open field to the location where the identical objects were placed during the familiarization session and the mouse was allowed to explore them for a 5-minute recognition test. […] Familiarization and recognition sessions were scored for total time spent investigating each object, the number of object interactions and the latency of the first object interaction. […]

Series [1] can be described thus: Solubility of 7-NI in PBS. It is filed as physicochemical. Particulars: phosphate buffer (PBS), aqueous buffer; 10 mM phosphate buffer pH 7.2.
A further series can be described thus: physchem. Particulars: organic solvent or mixture.
In series [2] the test system is 3-nitrotyrosine. Description: Western blot of 3-nitrotyrosine in cortical tissue, SHANK3 mutant group (M1). It is filed as in vivo, mouse. Particulars: SHANK3 mutant mice treated with 7-NI (M1+7-NI) vs M1. The method, then:
as §1
To further corroborate these findings, the expression of 3-nitrotyrosine in cortical tissue of the wild type (WT), compared with the SHANK3 mutant group (M1), and SHANK3 group treated with 7-NI (M1+7-NI), and in cortical tissue of the wild type (WT), compared with the CNTNAP2^(−/−) mutant group (M2), and the CNTNAP2^(−/−) mutant group treated with 7-NI (M2+7—NI) was tested, and the obtained data is presented in FIGS. 3C-D (for M1) and in FIGS. 3E-F (for M2).
Background: Immunoblotting shows a protein as a band on a membrane.

The subject of series [3] is 3-nitrotyrosine. The series can be described thus: Confocal microscopy of 3-nitrotyrosine in cortical neurons, SHANK3 model mice. To be noted: cortical region, compared to neurons of untreated mice. It is filed as in vivo, mouse. As to the method:
FIGS. 3G-H present confocal microscopy images (FIG. 3G) and a quantitative bar graph (FIG. 3H) showing nitro-tyrosine in the cortical region of neurons of wild-type mice (WT), SHANK3 model mice (M1) and SHANK3 model mice treated with 7-NI (M1+7-NI).
3-nitrotyrosine levels in were also evaluated by confocal microscopy of the cortical region in neurons of the tested mice, and the obtained data is presented in FIGS. 3G and 3H.

For series [4] the following is noted: even in very high doses; Biopharm. Drug Dispos. 2000, 21, 221-228; cited from earlier work.
Series [5] deals with Mutant mice (CNTNAP2 and SHANK3 mouse models). Description: Novel object recognition test (NOR), 7-NI-treated mutant mice (Example 3). Particulars: 7-NI IP 80 mg/kg/day for 7 days; mutant mice vs vehicle. It is filed as in vivo. The method, then: as §1, §2
For series [6] the following is noted: cited from earlier work.
Another series deals with neuronal NOS (Homo sapiens, UniProt P29475). Particulars: Pharm Res., 2001, 18, 1607-1612; cited from earlier work.
The test system of a further series is CNTNAP2−/− mutant mice. Description: Elevated plus maze test, CNTNAP2-/- mutant mice (M2). It is filed as in vivo, mouse. To be noted: 7-NI i.p. 80 mg/kg daily for 10 days, vs untreated mutant mice. The method, then:
as §1
Elevated plus maze test (see, FIG. 4C): The elevated plus-maze consisted of four arms (30×5 cm), two open, and the other two closed. The platform was made of white plexiglass. The apparatus was elevated 45 cm above the floor. The test, described in, was initiated by placing the mouse on the central platform of the maze, facing one of the open arms, and letting it move freely. Each session lasted 5 min. The time spent in the close and open arms was recorded.
In another set of tests, the potential effects of inhibiting NO on the cognitive functions was assayed on an additional mouse model of ASD-CNTNAP2−/− mutant mice. The mice were divided into three testing groups: WT mice, CNTNAP2−/− mutant mice (M2), and mutant mice that were administered with 7-NI (M2+7NI).

Structures are written as SMILES. In brackets after ≈: the same amount, converted by molar mass.

Chain of neuronal NOS (P29475 whole entry, species assumed): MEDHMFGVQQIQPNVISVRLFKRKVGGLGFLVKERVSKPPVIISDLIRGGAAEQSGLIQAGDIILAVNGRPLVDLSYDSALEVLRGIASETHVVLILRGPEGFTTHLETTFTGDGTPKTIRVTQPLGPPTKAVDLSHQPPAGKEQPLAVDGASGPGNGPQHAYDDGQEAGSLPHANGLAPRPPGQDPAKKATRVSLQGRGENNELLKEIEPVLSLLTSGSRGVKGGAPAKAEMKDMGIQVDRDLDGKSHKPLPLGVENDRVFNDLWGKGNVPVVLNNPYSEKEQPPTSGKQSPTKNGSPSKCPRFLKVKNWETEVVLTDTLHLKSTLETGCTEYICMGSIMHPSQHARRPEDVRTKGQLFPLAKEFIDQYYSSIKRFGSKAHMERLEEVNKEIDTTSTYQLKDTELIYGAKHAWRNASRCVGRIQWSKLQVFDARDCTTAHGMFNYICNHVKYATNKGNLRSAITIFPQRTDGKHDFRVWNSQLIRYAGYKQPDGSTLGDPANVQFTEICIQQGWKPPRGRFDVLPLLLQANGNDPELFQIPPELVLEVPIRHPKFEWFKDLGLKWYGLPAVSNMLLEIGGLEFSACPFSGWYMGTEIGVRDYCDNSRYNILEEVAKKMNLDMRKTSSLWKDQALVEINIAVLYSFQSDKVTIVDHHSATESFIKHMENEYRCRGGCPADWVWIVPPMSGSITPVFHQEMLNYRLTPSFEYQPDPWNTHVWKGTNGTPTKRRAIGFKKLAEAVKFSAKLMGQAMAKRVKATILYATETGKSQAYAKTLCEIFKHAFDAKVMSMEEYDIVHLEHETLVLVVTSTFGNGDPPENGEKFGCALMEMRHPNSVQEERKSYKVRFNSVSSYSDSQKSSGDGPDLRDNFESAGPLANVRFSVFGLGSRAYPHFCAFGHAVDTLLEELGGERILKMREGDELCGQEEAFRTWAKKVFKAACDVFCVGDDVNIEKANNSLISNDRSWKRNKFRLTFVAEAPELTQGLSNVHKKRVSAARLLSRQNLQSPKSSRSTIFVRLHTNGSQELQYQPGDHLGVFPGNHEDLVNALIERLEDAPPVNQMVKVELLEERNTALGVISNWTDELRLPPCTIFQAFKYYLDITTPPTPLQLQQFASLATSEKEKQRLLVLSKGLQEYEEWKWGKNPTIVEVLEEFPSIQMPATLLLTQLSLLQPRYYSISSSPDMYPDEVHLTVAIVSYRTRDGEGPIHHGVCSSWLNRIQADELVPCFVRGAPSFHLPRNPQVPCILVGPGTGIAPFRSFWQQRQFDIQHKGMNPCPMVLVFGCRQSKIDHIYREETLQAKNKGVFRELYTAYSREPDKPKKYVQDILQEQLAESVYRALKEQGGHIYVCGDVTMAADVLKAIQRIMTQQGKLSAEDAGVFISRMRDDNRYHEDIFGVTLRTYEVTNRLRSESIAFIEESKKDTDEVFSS

For `O=[N+]([O-])c1cccc2cn[nH]c12` [7-NI, 7-nitroindazole], in the series with SH-SY5Y cells, the “number of colonies (clonogenic survival)” value was “decrease in the number of colonies”. The figures for the “preference for the novel object (NOR test)” value (in the series with SHANK3 knockout mice (SHANK3 knockout mice aged 6 weeks); in [5]) were “exhibited a significant preference for the novel object over the familiar one” and “exhibited a significant preference for the novel object over the familiar object”, respectively. Moreover, the “memory (novel object recognition) in aged mice” value with SHANK3 knockout mice (SHANK3 knockout mice aged 10 months) is “restored”. The solubility in [1] stood at 0.14 mg/mL (≈ 0.858 mM); in “physchem”, 32 mg/mL (≈ 196 mM). In the series on 3-nitrotyrosine [2], the “expression of 3-Ntyr in cortical tissue” value is “reduced the expression of 3-Ntyr”. Moreover, in the series with 3-nitrotyrosine [3], the “reduction of 3-nitrotyrosine levels in the neurons” value is given as “about 50%”. In addition, in series [4], the half-life was at most 2 h. Besides, in series [6], the “solubility in aqueous medium” value is recorded as “very low solubility”. Besides, the “selectivity for neuronal NOS” value at neuronal NOS is on record as 10 fold. For the same molecule, the “anxiety like behaviors (elevated plus maze)” value in the series on CNTNAP2−/− mutant mice is “exhibited less anxiety like behaviors”.

Broadly, the solubility is how much of the substance goes into solution per volume. Broadly, the half-life is the time needed for the level to fall by half in the phase considered.
